Measurements published in article PMC10253817, “Design, Pharmacological Characterization, and Molecular Docking of Minimalist Peptidomimetic Antagonists of α4β1 Integrin” (International Journal of Molecular Sciences, 2023).

Key:
Type in all cases: cell-based
AKT = test: Western blot, FN-induced AKT phosphorylation in Jurkat E6.1 cells; conditions: Jurkat E6.1 cells pre-treated with 10^−7, 10^−8, 10^−9 M, then FN (10 µg/mL) 30 min
Experimental: To this purpose, Jurkat E6.1 cells were pre-treated with different concentrations (10^−7, 10^−8, 10^−9 M) of the compounds and then exposed to FN (10 µg/mL) for 30 min. […] In addition, the effects observed on intracellular signaling were concentration-dependent, except for compound 13 on AKT activation.
Western blot analysis was performed as previously described, with the following modifications. […] For integrin antagonists, JurkatE6.1 cells were subsequently incubated with FN (10 μg/mL) at 37 °C for 30 min. At the end of the incubation period, Jurkat E6.1 cells were lysed on ice using T-PER® (Tissue Protein Extraction Reagent, Life Technologies Italia, Milan, Italy), supplemented with a phosphatase inhibitor cocktail. Protein extracts were quantified using a BCA Protein Assay (Pierce, Rockford, IL, USA). The proteins from the cytoplasmatic extract were denatured at 95 °C for 3 min, then equal amounts of protein samples (30–50 μg) were loaded and separated via 12% SDS-PAGE. Proteins were transferred onto a nitrocellulose membrane (Biorad, Hercules, CA, USA), which was blocked with 5% nonfat milk in a Tris-buffered saline (10 mM Tris-HCl, pH 8, containing 150 mM NaCl) containing 0.1% Tween 20 for 1 h at room temperature. Membranes were stained overnight at 4 °C with anti-actin antibody (1:5000, Merck Life Science, Milan, Italy) or with anti-phospho-ERK1/2, anti-total ERK1/2, anti-phospho-AKT, anti-total-AKT, or anti-phospho-JNK antibodies (1:1000; Cell Signaling Technology, Danvers, MA, USA). The membranes were incubated with anti-rabbit peroxidase-conjugated secondary antibodies at a dilution of 1:8000. Blots were developed with a SuperSignal West Pico chemiluminescent substrate. Protocols for digital image acquisition and analysis have previously been described.

αMβ2 integrin = biological target: T1, αMβ2 integrin (Homo sapiens, UniProt P05107+P11215); test: αMβ2 integrin-mediated HL60 cell adhesion to Fg; conditions: HL60 cell adhesion to Fg (10 μg/mL), mean ± SD; for IC50: antagonists
T1 construct: HL60 cells, mainly expressing the leukocyte integrin αMβ2; host or cells: HL60 (PMA-treated)
T1 sequence (P05107 23-769, other chains not shown): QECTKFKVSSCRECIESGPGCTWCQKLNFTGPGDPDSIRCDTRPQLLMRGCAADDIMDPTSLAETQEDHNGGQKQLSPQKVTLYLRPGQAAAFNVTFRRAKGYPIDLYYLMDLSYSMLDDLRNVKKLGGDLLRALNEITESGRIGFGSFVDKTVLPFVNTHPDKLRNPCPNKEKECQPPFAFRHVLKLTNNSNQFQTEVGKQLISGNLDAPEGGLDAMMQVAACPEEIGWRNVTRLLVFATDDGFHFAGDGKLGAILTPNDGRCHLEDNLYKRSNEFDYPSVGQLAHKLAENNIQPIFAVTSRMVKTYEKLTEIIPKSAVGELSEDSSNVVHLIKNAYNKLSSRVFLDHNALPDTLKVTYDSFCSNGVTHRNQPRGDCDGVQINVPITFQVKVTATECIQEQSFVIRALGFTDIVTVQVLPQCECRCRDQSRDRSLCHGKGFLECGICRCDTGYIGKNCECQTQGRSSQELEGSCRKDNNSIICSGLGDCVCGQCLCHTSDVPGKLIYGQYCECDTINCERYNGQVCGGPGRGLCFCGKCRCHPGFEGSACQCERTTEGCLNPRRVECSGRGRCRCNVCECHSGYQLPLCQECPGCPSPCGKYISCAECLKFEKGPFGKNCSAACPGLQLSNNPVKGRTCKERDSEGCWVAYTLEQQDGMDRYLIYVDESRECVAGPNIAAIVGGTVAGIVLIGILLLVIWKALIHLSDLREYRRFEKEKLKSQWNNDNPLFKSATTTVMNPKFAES
Experimental: To this purpose, the ability of the best peptidomimetics to modulate cell adhesion mediated by integrins other than α4β1 was evaluated in HL60 cells, mainly expressing the leukocyte integrin αMβ2, and on K562 cells, mainly expressing α5β1, which shares a β1 subunit with the heterodimer α4β1. […] In contrast, 13 was a moderate promoter of cell adhesion mediated by αMβ2 integrin, behaving as an agonist. Regarding α5β1 integrin, none of the peptidomimetics employed were able to modulate K562 cell adhesion, thus being shown to be completely ineffective toward α5β1 integrin. The reference compound DS-70 was ineffective toward both αMβ2 and α5β1 integrins under the same experimental conditions (Table 3).
The assays were performed as previously described. Briefly, regarding adhesion assays on Jurkat E6.1 or HL-60 cells, black 96-well plates (Corning Costar) were coated overnight at 4 °C with FN or Fg (10 μg/mL) or VCAM-1 (2 μg/mL) in order to investigate α4β1 integrin-mediated cell adhesion. To avoid any kind of unspecific binding, plates were incubated with 100 μL/well of blocking solution (1% BSA in HBSS) for 30 min at 37 °C. Cells were counted, stained with the CellTracker green CMFDA (12.5 μM, 30 min at 37 °C, Life Technologies Italia, Milan, Italy) and after three washes, were preincubated with increasing concentrations of new compounds (10^−10–10^−4 M) or with the vehicle (methanol) for 30 min at 37 °C.
Then, cells were plated (500,000/well) on coated wells and incubated for 30 min at 37 °C. Afterwards nonadherent cells were removed via washing with a blocking solution, and the remaining adhered cells were lysed with 0.5% Triton X-100 in PBS (30 min at 4 °C). Green fluorescence was measured (Ex485 nm/Em535 nm) using an EnSpire Multimode Plate Reader (PerkinElmer, Waltham, MA, USA).
In both types of adhesion assay, the number of adherent cells was determined via comparison with a standard curve made in the same plate. Experiments were carried out in quadruplicate and repeated at least three times. Data analysis and EC50 or IC50 values were calculated using GraphPad Prism 9.5.1 (GraphPad Software, San Diego, CA, USA).
Cell culture. Jurkat E6.1 (expressing both α4β1 and αLβ2 integrin), K562 (expressing α5β1 integrin) and HL60 (expressing α Mβ2 integrin) cell lines were purchased from ATCC (Rockville, MD, USA); these cells were routinely cultured in RPMI-1640 (Life Technologies) supplemented with 1% glutamine and 10% fetal bovine serum (FBS). Cells were grown at 37 °C under 5% CO 2 humidified atmosphere. […]

α4β1 integrin = biological target: T2, α4β1 integrin (Homo sapiens, UniProt P05556+P13612); test: HUTS-21 monoclonal antibody binding (α4β1 integrin conformation), flow cytometry; conditions: Jurkat E6.1 cells; compounds 1–100 nM; FN 10 µg/mL; versus vehicle
T2 construct: Jurkat E6.1 cell line, which endogenously expresses α4β1 integrin; host or cells: Jurkat E6.1
T2 sequence (P13612 34-1032): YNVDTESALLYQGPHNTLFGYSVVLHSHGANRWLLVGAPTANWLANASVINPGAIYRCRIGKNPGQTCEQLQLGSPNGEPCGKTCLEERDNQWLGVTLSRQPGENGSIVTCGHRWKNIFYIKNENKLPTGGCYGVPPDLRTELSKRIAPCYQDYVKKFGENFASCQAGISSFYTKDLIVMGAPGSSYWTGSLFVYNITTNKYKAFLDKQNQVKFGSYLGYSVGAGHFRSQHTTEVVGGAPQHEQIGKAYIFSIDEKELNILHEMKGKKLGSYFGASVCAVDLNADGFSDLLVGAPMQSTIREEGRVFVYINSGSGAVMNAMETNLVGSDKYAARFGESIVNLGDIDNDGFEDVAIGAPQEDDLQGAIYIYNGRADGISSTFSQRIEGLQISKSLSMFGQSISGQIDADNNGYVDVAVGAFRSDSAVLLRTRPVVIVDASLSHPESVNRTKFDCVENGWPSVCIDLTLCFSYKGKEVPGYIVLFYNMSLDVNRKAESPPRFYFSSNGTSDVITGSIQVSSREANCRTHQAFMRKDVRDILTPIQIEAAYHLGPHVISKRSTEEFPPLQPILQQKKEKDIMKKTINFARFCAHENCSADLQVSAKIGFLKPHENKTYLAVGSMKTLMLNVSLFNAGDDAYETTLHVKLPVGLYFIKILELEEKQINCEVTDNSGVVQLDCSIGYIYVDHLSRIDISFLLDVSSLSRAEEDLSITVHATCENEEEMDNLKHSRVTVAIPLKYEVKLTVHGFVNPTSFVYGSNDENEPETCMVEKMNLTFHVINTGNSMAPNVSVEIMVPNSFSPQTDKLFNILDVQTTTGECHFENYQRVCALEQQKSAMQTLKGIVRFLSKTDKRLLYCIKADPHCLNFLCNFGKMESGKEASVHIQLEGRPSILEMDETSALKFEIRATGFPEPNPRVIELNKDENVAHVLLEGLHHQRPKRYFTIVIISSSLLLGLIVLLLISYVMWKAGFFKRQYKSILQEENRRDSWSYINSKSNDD
T2 sequence (P05556 21-798): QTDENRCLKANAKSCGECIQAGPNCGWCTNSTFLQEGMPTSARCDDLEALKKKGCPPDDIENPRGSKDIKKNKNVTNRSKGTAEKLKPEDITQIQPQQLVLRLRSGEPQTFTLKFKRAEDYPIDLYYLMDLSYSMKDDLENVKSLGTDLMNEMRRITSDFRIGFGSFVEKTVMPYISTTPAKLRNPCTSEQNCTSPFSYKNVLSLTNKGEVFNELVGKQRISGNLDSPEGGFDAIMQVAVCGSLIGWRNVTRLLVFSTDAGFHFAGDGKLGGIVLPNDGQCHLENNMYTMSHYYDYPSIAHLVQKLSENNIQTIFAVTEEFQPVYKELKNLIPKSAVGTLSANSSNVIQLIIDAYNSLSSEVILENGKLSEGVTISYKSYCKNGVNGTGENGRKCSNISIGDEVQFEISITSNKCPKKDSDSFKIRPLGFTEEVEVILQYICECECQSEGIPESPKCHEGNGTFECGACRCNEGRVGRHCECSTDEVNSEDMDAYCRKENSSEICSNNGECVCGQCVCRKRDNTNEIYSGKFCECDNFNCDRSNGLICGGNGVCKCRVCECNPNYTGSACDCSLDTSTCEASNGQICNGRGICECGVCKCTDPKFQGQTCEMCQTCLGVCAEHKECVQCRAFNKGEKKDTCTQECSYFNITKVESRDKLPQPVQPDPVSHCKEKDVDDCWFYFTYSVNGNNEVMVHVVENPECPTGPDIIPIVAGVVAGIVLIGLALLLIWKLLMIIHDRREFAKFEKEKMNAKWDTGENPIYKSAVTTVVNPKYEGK
Source text: Integrin functions are regulated by a number of conformational changes in the protein itself. […] Conformational changes can be evaluated by using conformationally sensitive antibodies which specifically recognize epitopes exposed only in a defined structural conformation. To better depict peptidomimetics–α4β1 integrin interactions, we employed PE-conjugated HUTS-21 mAb that recognizes an epitope mapped to the hybrid domain of the β1 subunit.
Conversely, antagonists 3, 8, and 13, although binding to α4β1 integrin as previously shown, were not able to induce any conformational rearrangement, showing very low binding of HUTS-21 mAb.
Flow cytometry analysis was performed as previously described, with the following modifications. Jurkat E6.1 cells were resuspended in 1% BSA in HBSS (50,000 cells/sample); then, FN (10 μg/mL) and two concentrations of the best peptidomimetics (100–1 nM) were added to the cells for 30 min. Thereafter, phycoerythrin (PE)-conjugated, conformational-sensitive HUTS-21 mAb (PE mouse anti-human CD29 antibody, Becton Dickinson Italia, Milan, Italy) (20 μL/sample) was added for 45 min at room temperature; after two washes, Jurkat E6.1 cells were suspended in PBS, and 10,000 cells/sample were acquired in a Guava®EasyCyte Flow Cytometer. The data are presented as the mean fluorescence intensity (MFI). Data were normalized with the relative fluorescence for nonspecific binding evaluated by exposing the cells to an isotype control mAb set to 0.

Structure (SMILES) | FN-induced AKT phosphorylation (AKT) | IC50 (αMβ2 integrin) [nM] | binding of HUTS-21 mAb (MFI) (α4β1 integrin) | EC50 (αMβ2 integrin; agonist = increased number of adherent cells) [nM]
CC(=O)N[C@@H](CNC(=O)Cc1ccc(NC(=O)Nc2ccccc2C)cc1)C(=O)NCC(=O)O [compound 3] | significantly prevented | 76 | not able to increase the binding of HUTS-21 mAb | 
CCCNC(=O)[C@@H](CC(=O)NCC(=O)O)NC(=O)Cc1ccc(NC(=O)Nc2ccccc2C)cc1 [compound 8] | significantly prevented | > 5000 | not able to increase the binding of HUTS-21 mAb | 
Cc1ccccc1NC(=O)Nc1ccc(CNC(=O)C[C@@H](C)NC(=O)CC(=O)O)cc1 [compound 13] | significantly prevented |  | not able to increase the binding of HUTS-21 mAb | 285
